Here are results for two compounds from patent publication US6753442B1, “Amorphous nitric esters and their pharmaceutical compositions” (Nicox S.A., priority 1999, dated 2004).

The nature of series [1]: Dissolution rate test in deionized water (USP XXIII apparatus, UV 235 nm). The series is classed as physicochemical. The following applies: for % of active principle passed in solution after 10 minutes: as stated in the text of the Examples; for % by weight of the active principle passed in solution: 30 mg active principle in 1000 ml deionized water, 37°C, 100 rpm. The method, then: The dissolution rate test is carried out in a dissolving equipment according to United States Pharmacopeia 23 by using a volume of deionized water of 1000 ml. The blade stirrer speed is of 100 rpm and the temperature is 37±0.5° C.
In a little glass vessel an exact amount of each sample is weighed so that it contains an amount of the active principle equal to 30 mg, which is directly introduced in the vessel containing the deionized water. At predetermined times, respectively of 5, 10, 15, 30, 45, 50, 60, 90 and 120 minutes from the beginning of the test, the amount of the nitroderivative compound passed in solution is determined, by measuring the concentration w/v (weigh/volume) thereof by UV spectrophotometry at the wave length of 235 nm, using a calibration line. The data are expressed as percentage of nitroderivative compound passed in solution in connection with the time. The amount of the compound of formula (I) passed in solution at the time of 10 minutes is at least about 10 times higher with respect to that of the nitroderivative compound not in amorphous form.
The dissolution rate of 3-(nitroxymethyl)phenyl ester of the acetylsalicylic acid as such and in the preparations containing it according to the examples described hereinafter, has been carried out in a dissolving equipment according to USP (United States Pharmacopeia) XXIII.
The test is carried out by using a volume of deionized water of 1000 ml. The angle rate of the blade stirrer is of 100 rpm and the temperature of 37±0.5° C.
In a little glass vessel an exact amount of each preparation to be tested is weighed so that it contains an amount of the active principle equal to 30 mg, which is directly introduced in the vessel. At predetermined times, respectively of 5, 10, 15, 30, 45, 50, 60, 90 and 120 minutes from the beginning of the test the amount of the compound passed in solution is determined, by measuring the concentration w/v thereof by UV spectrophotometry at the wave length of 235 nm, using a calibration line. The data are expressed as percentage of active principle passed in solution in connection with the time.

Series [2] is described as follows: Crystallinity loss (amorphization degree) by DSC. The series is classed as physicochemical. The following applies: result in words. As for the experimental part: The amorphization degree can be measured by well known methods such as for example DSC, RX, IR, etc. […] The amorphization degree is determined by DSC as variation reduction) of the subtended area of the endothermic melting peak of the active principle. When the amorphization is complete, the melting peak characteristic of the active principle of formula (I) substantially disappears. This means that there is a variation of the enthalpy associated to the melting peak. The specific melting enthalpy ΔH (Joule/g) of the product as such and of the product treated with processes able to decrease the crystallinity (formulation) thereof, is determined by DSC analysis. The percent crystallinity loss is evaluated by the following equation: [formula] The scanning parameters adopted for the DSC analysis are the following: Scanning range: from 30° C. min. to 330° C. max Scanning rate: 10 K/min
(In DSC, transitions show as peaks or steps in heat flow.)

For `CC(=O)Oc1ccccc1C(=O)Oc1cccc(CO[N+](=O)[O-])c1` [Example 1, 3-(nitroxymethyl)phenyl ester of the acetylsalicylic acid], in series [1], the “% of active principle passed in solution after 10 minutes” value was 0.3%. The “% by weight of the active principle passed in solution” value (shortened to “% by weight”) turned out to be 0.1 % by weight in series [1] (time 5 minutes, listed as Ex. 1); 0.3 % by weight in series [1] (time 10 minutes, listed as Ex. 1); 0.4 % by weight in series [1] (time 15 minutes, listed as Ex. 1); 0.8 % by weight in series [1] (time 30 minutes, listed as Ex. 1); 1.2 % by weight in series [1] (time 45 minutes, listed as Ex. 1); 1.6 % by weight in series [1] (time 60 minutes, listed as Ex. 1). In addition, the “% by weight” value is reported as 2.4 % by weight in series [1] (time 90 minutes, listed as Ex. 1) and 3.1 % by weight in series [1] (time 120 minutes, listed as Ex. 1). The “crystalline state of the active principle by DSC analysis” value in series [2] was “completely crystalline”.

Turning to `CC(=O)Oc1ccccc1C(=O)Oc1cccc(CO[N+](=O)[O-])c1` [Example 7, 3-(nitroxymethyl)phenyl ester of the acetylsalicylic acid], in series [1], the “% of active principle passed in solution after 10 minutes” value came out at 0.5%. The “% by weight” value in series [1] (time 0 minutes) is given as 0.0 % by weight; in series [1] (time 5 minutes), 0.3 % by weight; in series [1] (time 10 minutes) it was 0.5 % by weight; in series [1] (time 15 minutes), 0.8 % by weight; in series [1] (time 30 minutes) it was 1.5 % by weight; in series [1] (time 45 minutes) it was 2.2 % by weight. The “% by weight” value in series [1] (time 60 minutes) stood at 2.7 % by weight; in series [1] (time 90 minutes), 4.0 % by weight; in series [1] (time 120 minutes) it was 5.2 % by weight. The “crystalline state of the active principle by DSC analysis” value in series [2] was “completely crystalline form”.
